≈ marks a conversion by molar mass, not a printed value.
System: C. difficile
Test: MIC against C. difficile, NCCLS agar dilution method for anaerobic bacteria
Type: cell-based, Clostridium difficile
Settings: calcium 50 μg/ml
Method: Minimum inhibitory concentrations (MICs) for C. difficile were determined and antimicrobial agent stock solutions were prepared and stored according to the NCCLS reference agar dilution method for anaerobic bacteria (M11-A5, 2001). Two-fold serial antibiotic dilutions were prepared in Wilkens-Chalgren agar (WCA). Test organisms were selected from 48 hour growth on Braziers (C.C.E.Y.) agar, subcultured in Schaedler broth to a density equivalent to a McFarland 0.5 standard (1×10^8 CFU/ml), with a final inoculum onto WCA plates of approximately 10^5 CFU/spot. Bacteroides fragilis ATCC 25285 was included as a reference control strain and Metronidazole was used as a reference antibiotic for quality control. All manipulations were performed in duplicate in ambient atmosphere in pre-reduced media with only brief exposure to oxygen. Plates were incubated anaerobically for 48 hours at 37° C. with the MIC defined as the concentration of drug where a marked reduction occurred in the appearance of growth on the test plate compared to growth on the anaerobic control plate.
Culture media were supplemented with calcium ions (as calcium chloride) at 50 μg/ml except where higher concentrations are indicated.

| SMILES | MIC C. difficile 19126 | MIC C. difficile 37779 |
| --- | --- | --- |
| CC[C@H](C)[C@@H]1NC(=O)[C@@H]2NC(=O)[C@H](CC(C)C)NC(=O)[C@H](NC(=O)[C@@H]3CSC[C@@H](NC(=O)[C@@H](N)C(C)C)C(=O)N[C@@H](CO)C(=O)NCC(=O)N[C@@H](Cc4c[nH]c5ccccc45)C(=O)N[C@@H](C(C)C)C(=O)N3)[C@H](C)SC[C@H](NC(=O)[C@H](CCC(=O)O)NC1=O)C(=O)NCC(=O)N[C@H]1C(=O)N[C@@H](CC(C)C)C(=O)N[C@@H](C(C)C)C(=O)N[C@@H](CS[C@H]2C)C(=O)N[C@@H](C)C(=O)N[C@H](C(=O)O)CS[C@H]1C [Compound VI, L-Val(0)deoxyactagardine B] | 8 µg/mL (≈ 4.05 µM) | 8 µg/mL (≈ 4.05 µM) |
| CC[C@H](C)[C@@H]1NC(=O)[C@@H]2NC(=O)[C@H](CC(C)C)NC(=O)[C@H](NC(=O)[C@@H]3CSC[C@@H](NC(=O)[C@@H](N)Cc4c[nH]c5ccccc45)C(=O)N[C@@H](CO)C(=O)NCC(=O)N[C@@H](Cc4c[nH]c5ccccc45)C(=O)N[C@@H](C(C)C)C(=O)N3)[C@H](C)SC[C@H](NC(=O)[C@H](CCC(=O)O)NC1=O)C(=O)NCC(=O)N[C@H]1C(=O)N[C@@H](CC(C)C)C(=O)N[C@@H](C(C)C)C(=O)N[C@@H](CS[C@H]2C)C(=O)N[C@@H](C)C(=O)N[C@H](C(=O)O)CS[C@H]1C [Compound IX, L-Tryp(0)deoxyactagardine B] | 2 µg/mL (≈ 0.971 µM) | 1 µg/mL (≈ 0.485 µM) |
